# Source: patent publication US7491844B2, “Therapeutic cyclopentane derivatives” (Allergan, Inc., priority 2006, dated 2009)
# Experiments:
# EP4 receptors = biological target: T1, EP4 receptors (Homo sapiens, UniProt P35408); test: Radioligand binding, [3H]PGE2, HEK-293 cells expressing EP4
# T1 construct: expressed in transfected cells; host or cells: HEK-293 (plasma membrane fraction)
# Experimental: HEK-293 cells stably expressing the human or feline FP receptor, or EP1, EP2, or EP4 receptors were washed with TME buffer, scraped from the bottom of the flasks, and homogenized for 30 sec using a Brinkman PT 10/35 polytron. TME buffer was added to achieve a final 40 ml volume in the centrifuge tubes (the composition of TME is 100 mM TRIS base, 20 mM MgCl2, […]; 10N HCl is added to achieve a pH of 7.4).
# The cell homogenate was centrifuged at 19000 r.p.m. for 20 min at 4° C. using a Beckman Ti-60 rotor. The resultant pellet was resuspended in TME buffer to give a final 1 mg/ml protein concentration, as determined by Biorad assay. Radioligand binding competition assays vs. [^3H-]17-phenyl PGF2 ? (5 nM) were performed in a 100 μl volume for 60 min. Binding reactions were started by adding plasma membrane fraction. The reaction was terminated by the addition of 4 ml ice-cold TRIS-HCl buffer and rapid filtration through glass fiber GF/B filters using a Brandel cell harvester. The filters were washed 3 times with ice-cold buffer and oven dried for one hour.
# [^3H-] PGE2 (specific activity 180 Ci mmol) was used as the radioligand for EP receptors. [^3H] 17-phenyl PGF2 ? was employed for FP receptor binding studies. […] 17-phenyl PGF2 ? and non-specific binding determined with 10^−5M of unlabeled PGE2, or 17-phenyl PGF2 ? , according to receptor subtype studied.
# hEP2/Gqs5 = biological target: T2, hEP2/Gqs5 (Homo sapiens, UniProt P43116); test: FLIPR calcium signal, HEK-293(EBNA) cells; type: cell-based; settings: value outside the parentheses; read-out: Ca2+ Signal-EC50 (nM) EP2
# T2 construct: expressed in transfected cells; host or cells: HEK-293(EBNA)
# Experimental: (§1) HEK-293(EBNA) cells, stably expressing one type or subtype of recombinant human prostaglandin receptors (prostaglandin receptors expressed: hDP/Gqs5; hEP1; hEP2/Gqs5; hEP3A/Gqi5; hEP4/Gqs5; hFP; hiP; hTP), were cultured in 100 mm culture dishes in high-glucose DMEM medium containing 10% fetal bovine serum, 2 mM l-glutamine, 250 ? g/ml geneticin (G418) and 200 ? g/ml hygromycin B as selection markers, and 100 units/ml penicillin G, 100 ? g/ml streptomycin and 0.25 ? g/ml amphotericin B.
# (§2) Cells were seeded at a density of 5×10^4 cells per well in Biocoat® Poly-D-lysine-coated black-wall, clear-bottom 96-well plates (Becton-Dickinson) and allowed to attach overnight in an incubator at 37° C. Cells were then washed two times with HBSS-HEPES buffer (Hanks Balanced Salt Solution without bicarbonate and phenol red, 20 mM HEPES, pH 7.4) using a Denley Cellwash plate washer (Labsystems). After 45 minutes of dye-loading in the dark, using the calcium-sensitive dye Fluo-4 AM at a final concentration of 2 ? M, plates were washed four times with HBSS-HEPES buffer to remove excess dye leaving 100 ? l in each well. Plates were re-equilibrated to 37° C. for a few minutes.
# (§3) Cells were excited with an Argon laser at 488 nm, and emission was measured through a 510-570 nm bandwidth emission filter (FLIPR™, Molecular Devices, Sunnyvale, Calif.). Drug solution was added in a 50 ? l volume to each well to give the desired final concentration. The peak increase in fluorescence intensity was recorded for each well. On each plate, four wells each served as negative (HBSS-HEPES buffer) and positive controls (standard agonists: BW245C (hDP); PGE2 (hEP1; hEP2/Gqs5; hEP3A/Gqi5; hEP4/Gqs5); PGF2 ? (hFP); carbacyclin (hIP); U-46619 (hTP), depending on receptor). The peak fluorescence change in each drug-containing well was then expressed relative to the controls.
# (§4) Compounds were tested in a high-throughput (HTS) or concentration-response (CoRe) format. In the HTS format, forty-four compounds per plate were examined in duplicates at a concentration of 10^−5 M. To generate concentration-response curves, four compounds per plate were tested in duplicates in a concentration range between 10^−5 and 10^−11 M. The duplicate values were averaged. In either, HTS or CoRe format each compound was tested on at least 3 separate plates using cells from different passages to give an n≧3.
# hEP3A/Gqi5 = biological target: T3, hEP3A/Gqi5 (Homo sapiens, UniProt P43115); test: FLIPR calcium signal, HEK-293(EBNA) cells; type: cell-based; settings: read-out: Ca2+ Signal-EC50 (nM) EP3
# T3 construct: expressed in transfected cells; host or cells: HEK-293(EBNA)
# T3 sequence (P43115 1-390): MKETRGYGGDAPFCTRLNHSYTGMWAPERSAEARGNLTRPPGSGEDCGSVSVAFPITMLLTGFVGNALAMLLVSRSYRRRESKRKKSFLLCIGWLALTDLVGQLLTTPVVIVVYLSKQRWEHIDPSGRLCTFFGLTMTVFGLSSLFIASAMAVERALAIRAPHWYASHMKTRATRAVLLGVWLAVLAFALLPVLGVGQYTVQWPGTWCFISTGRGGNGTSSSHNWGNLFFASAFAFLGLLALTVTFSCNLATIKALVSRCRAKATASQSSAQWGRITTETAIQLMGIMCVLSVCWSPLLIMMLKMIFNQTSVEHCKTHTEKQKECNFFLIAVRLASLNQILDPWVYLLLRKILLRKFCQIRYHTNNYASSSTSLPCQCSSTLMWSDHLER
# Experimental: as §1, §2, §3, §4
# hEP4/Gqs5 = biological target: T4, hEP4/Gqs5 (Homo sapiens, UniProt P35408); test: FLIPR calcium signal, HEK-293(EBNA) cells; type: cell-based; settings: read-out: Ca2+ Signal-EC50 (nM) EP4
# T4 construct: expressed in transfected cells; host or cells: HEK-293(EBNA)
# Experimental: as §1, §2, §3, §4
# EP2 = EP2 (Homo sapiens, UniProt P43116); test: Competition radioligand binding, [3H]PGE2, HEK 293 cells expressing EP2; parameters: expressed in transfected cells; host or cells: HEK 293 (membranes or whole cells)
# Experimental: Competition binding experiments were performed in a medium containing Hank's balanced salt solution, Hepes 20 mM, pH 7.3, membranes (˜60 μg protein) or 2×10^5 cells from HEK 293 cells stably expressing human EP2 receptors, [^3H]PGE2 (10 nM) and various concentrations of test compounds in a total volume of 300 μl. Reaction mixtures were incubated at 23° C. for 60 min, and were filtered over Whatman GF/B filters under vacuum. Filters were washed three times with 5 ml ice-cold buffer containing 50 mM Tris/HCl (pH 7.3). Non-specific binding was estimated in the presence of excess unlabeled PGE2 (10 μM). Binding data fitted to the binding model for a single class of binding sites, using nonlinear regression analysis. IC50 values thus obtained were converted to Ki using the equation of Ki=(IC50/(1+[L]/KD) where [L] represents PGE2 concentration (10 nM) and KD the dissociation constant for [^3H]PGE2 at human EP2 receptors (40 nM). […]
# The cell homogenate was centrifuged at 19000 r.p.m. for 20 min at 4° C. using a Beckman Ti-60 rotor. The resultant pellet was resuspended in TME buffer to give a final 1 mg/ml protein concentration, as determined by Biorad assay. […]
# [^3H-] […] 17-phenyl PGF2 ? and non-specific binding determined with 10^−5M of unlabeled PGE2, or 17-phenyl PGF2 ? , according to receptor subtype studied.
# hDP/Gqs5 = biological target: T5, hDP/Gqs5 (Homo sapiens, UniProt Q13258); test: FLIPR calcium signal, HEK-293(EBNA) cells; type: cell-based
# T5 construct: expressed in transfected cells; host or cells: HEK-293(EBNA)
# T5 sequence (Q13258 1-359): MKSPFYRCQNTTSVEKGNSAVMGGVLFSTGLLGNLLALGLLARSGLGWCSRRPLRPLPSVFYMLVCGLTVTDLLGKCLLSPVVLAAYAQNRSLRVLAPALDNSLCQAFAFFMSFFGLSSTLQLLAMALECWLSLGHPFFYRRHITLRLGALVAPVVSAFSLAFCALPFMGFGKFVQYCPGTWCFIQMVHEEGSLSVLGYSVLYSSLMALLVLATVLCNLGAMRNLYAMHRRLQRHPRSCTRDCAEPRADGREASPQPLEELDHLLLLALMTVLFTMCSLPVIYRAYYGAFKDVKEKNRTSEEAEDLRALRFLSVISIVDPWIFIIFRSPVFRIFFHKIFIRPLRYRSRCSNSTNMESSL
# Experimental: as §1, §2, §3, §4
# hEP1 = biological target: T6, hEP1 (Homo sapiens, UniProt P34995); test: FLIPR calcium signal, HEK-293(EBNA) cells; type: cell-based
# T6 construct: expressed in transfected cells; host or cells: HEK-293(EBNA)
# T6 sequence (P34995 1-402): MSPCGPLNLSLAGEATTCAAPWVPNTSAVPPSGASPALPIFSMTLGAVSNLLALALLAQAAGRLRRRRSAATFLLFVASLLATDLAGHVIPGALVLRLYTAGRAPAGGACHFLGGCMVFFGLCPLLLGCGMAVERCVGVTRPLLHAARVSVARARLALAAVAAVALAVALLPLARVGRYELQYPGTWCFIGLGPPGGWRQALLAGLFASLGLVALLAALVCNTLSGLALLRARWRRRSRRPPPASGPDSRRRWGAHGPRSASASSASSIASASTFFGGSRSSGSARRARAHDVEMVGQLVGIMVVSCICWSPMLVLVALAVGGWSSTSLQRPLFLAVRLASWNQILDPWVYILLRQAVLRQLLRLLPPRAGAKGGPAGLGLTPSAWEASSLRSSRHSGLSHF
# Experimental: as §1, §2, §3, §4
# hFP = biological target: T7, hFP (Homo sapiens, UniProt P43088); test: FLIPR calcium signal, HEK-293(EBNA) cells; type: cell-based
# T7 construct: expressed in transfected cells; host or cells: HEK-293(EBNA)
# Experimental: as §1, §2, §3, §4
# hIP = biological target: T8, hIP (Homo sapiens, UniProt P43119); test: FLIPR calcium signal, HEK-293(EBNA) cells; type: cell-based
# T8 construct: expressed in transfected cells; host or cells: HEK-293(EBNA)
# Experimental: as §1, §2, §3, §4
# hTP = biological target: T9, hTP (Homo sapiens, UniProt P21731); test: FLIPR calcium signal, HEK-293(EBNA) cells; type: cell-based
# T9 construct: expressed in transfected cells; host or cells: HEK-293(EBNA)
# T9 sequence (P21731 1-343): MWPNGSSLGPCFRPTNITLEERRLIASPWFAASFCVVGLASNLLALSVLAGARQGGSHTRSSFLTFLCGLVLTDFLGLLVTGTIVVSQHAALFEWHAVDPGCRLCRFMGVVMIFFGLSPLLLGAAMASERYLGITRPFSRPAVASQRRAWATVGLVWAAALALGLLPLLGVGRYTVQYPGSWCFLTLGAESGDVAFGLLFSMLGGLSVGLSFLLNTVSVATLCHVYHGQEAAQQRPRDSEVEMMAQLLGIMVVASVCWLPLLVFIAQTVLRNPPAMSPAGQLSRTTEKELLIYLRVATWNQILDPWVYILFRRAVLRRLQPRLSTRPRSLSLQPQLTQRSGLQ
# Experimental: as §1, §2, §3, §4
# T2 sequence (P43116 whole entry): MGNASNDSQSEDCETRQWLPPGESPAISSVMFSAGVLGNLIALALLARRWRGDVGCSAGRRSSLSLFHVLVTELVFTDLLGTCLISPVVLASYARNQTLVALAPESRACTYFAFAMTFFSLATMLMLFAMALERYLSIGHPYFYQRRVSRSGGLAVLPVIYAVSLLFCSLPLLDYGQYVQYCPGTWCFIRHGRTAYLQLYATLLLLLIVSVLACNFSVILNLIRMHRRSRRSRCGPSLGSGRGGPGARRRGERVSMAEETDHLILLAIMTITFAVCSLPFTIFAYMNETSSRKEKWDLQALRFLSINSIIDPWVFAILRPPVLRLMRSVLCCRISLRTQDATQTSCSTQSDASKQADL
# Sequence of EP2 (P43116 whole entry): as above
# T1 sequence (P35408 whole entry): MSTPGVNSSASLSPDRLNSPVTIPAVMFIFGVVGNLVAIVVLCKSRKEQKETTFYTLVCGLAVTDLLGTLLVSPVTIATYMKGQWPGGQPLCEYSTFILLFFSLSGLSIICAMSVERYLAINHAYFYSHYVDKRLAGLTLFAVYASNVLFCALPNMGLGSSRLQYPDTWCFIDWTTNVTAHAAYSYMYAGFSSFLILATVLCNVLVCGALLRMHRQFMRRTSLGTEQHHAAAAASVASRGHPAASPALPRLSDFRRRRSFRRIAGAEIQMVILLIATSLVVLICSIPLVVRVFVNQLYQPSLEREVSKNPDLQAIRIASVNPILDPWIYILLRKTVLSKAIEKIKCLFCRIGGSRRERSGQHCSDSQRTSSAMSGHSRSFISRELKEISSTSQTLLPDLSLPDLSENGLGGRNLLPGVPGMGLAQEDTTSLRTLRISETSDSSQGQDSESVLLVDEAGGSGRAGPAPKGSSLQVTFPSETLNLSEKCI
# T7 sequence (P43088 whole entry): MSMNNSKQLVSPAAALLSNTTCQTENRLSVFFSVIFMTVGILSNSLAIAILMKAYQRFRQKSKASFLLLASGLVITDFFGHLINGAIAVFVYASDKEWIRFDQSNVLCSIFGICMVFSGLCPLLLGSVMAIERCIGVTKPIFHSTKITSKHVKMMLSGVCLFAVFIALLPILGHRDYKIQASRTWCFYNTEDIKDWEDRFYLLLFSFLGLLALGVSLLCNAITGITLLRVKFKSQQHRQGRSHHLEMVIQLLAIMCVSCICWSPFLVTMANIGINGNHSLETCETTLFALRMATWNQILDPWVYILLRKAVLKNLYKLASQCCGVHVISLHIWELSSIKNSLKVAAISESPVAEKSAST
# T4 sequence (P35408 whole entry): as the sequence (P35408 whole entry) above
# T8 sequence (P43119 whole entry): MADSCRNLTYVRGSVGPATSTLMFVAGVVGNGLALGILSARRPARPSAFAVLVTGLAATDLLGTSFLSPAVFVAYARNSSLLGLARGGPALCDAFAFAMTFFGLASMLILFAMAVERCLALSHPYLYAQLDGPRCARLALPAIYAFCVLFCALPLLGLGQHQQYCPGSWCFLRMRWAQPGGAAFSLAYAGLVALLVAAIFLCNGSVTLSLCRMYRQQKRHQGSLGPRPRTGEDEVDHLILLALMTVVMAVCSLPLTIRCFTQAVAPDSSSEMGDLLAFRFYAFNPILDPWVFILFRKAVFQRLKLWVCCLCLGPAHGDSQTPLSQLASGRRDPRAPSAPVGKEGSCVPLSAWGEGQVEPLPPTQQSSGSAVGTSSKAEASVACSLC
Structure (SMILES),Ki (EP4 receptors),EC50 (hEP2/Gqs5),EC50 (hEP3A/Gqi5),EC50 (hEP4/Gqs5),Ki (EP2),Ca2+ Signal-EC50 (nM) DP (hDP/Gqs5),Ca2+ Signal-EC50 (nM) EP1 (hEP1),Ca2+ Signal-EC50 (nM) FP (hFP),Ca2+ Signal-EC50 (nM) IP (hIP),Ca2+ Signal-EC50 (nM) TP (hTP)
CCCCCC(O)c1ccc([C@@H]2[C@@H](C/C=C\CCCC(=O)O)[C@H](Cl)C[C@@H]2Cl)cc1 (some centres unmarked) [compound 1],2360 nM,427 nM,449 nM,> 10000 nM,504 nM,,,,,
CCCCCC(O)c1ccc([C@@H]2[C@@H](C/C=C\CCCC(=O)O)[C@H](Cl)C[C@H]2Cl)cc1 (some centres unmarked) [Entry 2],1400 nM,15 nM,25 nM,,25 nM,notactive,notactive,notactive,notactive,notactive
